Laboratory results: patent US20030096020A1, “Novel herbal composition for the management of bronchial asthma and a process of manufacturing the same” (priority 2001, published 2003)

System: mast cells
Test: Active anaphylaxis method to evaluate mast cell count
Assay type: in vivo, rat
Conditions: sensitized rats

C[C@]12C=CC(=O)C=C1CC[C@@H]1[C@@H]2[C@@H](O)C[C@@]2(C)[C@H]1CC[C@]2(O)C(=O)CO [Standard, Prednisolone]
Degranulation (% mean +/- SEM) of mast cells, 21st day sacrifice, central zone (no treatment day 14 to 21, 21st day sacrifice, central zone): 29.4 ± 7.2 %
Degranulation (% mean +/- SEM) of mast cells, 21st day sacrifice, peripheral zone (no treatment day 14 to 21, 21st day sacrifice, peripheral zone): 37.51 ± 8.3 %
Degranulation (% mean +/- SEM) of mast cells, 13th day sacrifice, central zone (oral treatment day 5 to 13, 13th day sacrifice, central zone): 8.4 ± 2.0 %
Degranulation (% mean +/- SEM) of mast cells, 13th day sacrifice, peripheral zone (oral treatment day 5 to 13, 13th day sacrifice, peripheral zone): 8.7 ± 1.621 %
